Laboratory results taken from the supplement of paper PMC11061612.

Legend:
[1] = tested on: Jurkat (T-Lymphoblastic Leukemia); assay: Bliss excess, mean over the matrix (fraction); higher = more synergy;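 note: after 72 h of two-drug dosing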
Summary of the method: (§1)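 Cell lines grown in DMEM/F12 or RPMI with 10% FBS were plated in 1536-well plates and held 24 hours at 37°C, 5% CO2 before 72 hours of exposure to two-drug dose matrices, with DMSO typically at 0.2%. CellTiter-Glo 2.0 luminescence gave viability, which was converted to inhibition. Vehicle wells were set to 0 and blank wells to 1. Combination Emax is the second-highest inhibition in the matrix, and Bliss excess is the observed combination effect minus the expected EA + EB − EA·EB, where EA and EB are the single-agent effects.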

[2] = tested on: EW-16 (Ewing's Sarcoma); assay: combination Emax (second highest fraction inhibited in the dose matrix, 72 h); higher = more inhibition; extreme values may be limits of the assay
Summary of the method: as §1

[3] = tested on: NCI-H716 (Colorectal Carcinoma); assay: as above
Summary of the method: as §1

[4] = tested on: CESS (Acute Myeloid Leukemia); assay: as above
Summary of the method: as §1

[5] = tested on: CAL-27 (Oral Cavity Carcinoma); assay: as above
Summary of the method: as §1

[6] = tested on: G-402 (Other Solid Carcinomas); assay: as above
Summary of the method: as §1

[7] = tested on: CA46 (Burkitt's Lymphoma); assay: as above
Summary of the method: as §1

[8] = tested on: GA-10 (Burkitt's Lymphoma); assay: as above
Summary of the method: as §1

[9] = tested on: COLO-792 (Melanoma); assay: as above
Summary of the method: as §1

[10] = tested on: UACC-812 (Breast Carcinoma); assay: as above
Summary of the method: as §1

[11] = tested on: huH-1 (Hepatocellular Carcinoma); assay: as above
Summary of the method: as §1

[12] = tested on: HT55 (Colorectal Carcinoma); assay: as above
Summary of the method: as §1

[13] = tested on: A253 (Head and Neck Carcinoma); assay: as above
Summary of the method: as §1

[14] = tested on: JVM-2 (B-Cell Non-Hodgkin's Lymphoma); assay: as above
Summary of the method: as §1

[15] = tested on: NB13 (Neuroblastoma); assay: as above
Summary of the method: as §1

[16] = tested on: A101D (Melanoma); assay: as above
Summary of the method: as §1

[17] = tested on: NCI-H2228 (Lung Adenocarcinoma); assay: as above
Summary of the method: as §1

[18] = tested on: DU-4475 (Breast Carcinoma); assay: as above
Summary of the method: as §1

[19] = tested on: JIMT-1 (Breast Carcinoma); assay: as above
Summary of the method: as §1

[20] = tested on: TE-10 (Esophageal Squamous Cell Carcinoma); assay: as above
Summary of the method: as §1

SMILES	Bliss excess [1]	combination Emax [2]	combination Emax [3]	combination Emax [4]	combination Emax [5]	combination Emax [6]	combination Emax [7]	combination Emax [8]	combination Emax [9]	combination Emax [10]	combination Emax [11]	combination Emax [12]	combination Emax [13]	combination Emax [14]	combination Emax [15]	combination Emax [16]	combination Emax [17]	combination Emax [18]	combination Emax [19]	combination Emax [20]
C[C@@H](c1ccc2nccn2c1)n1nnc2ncc(-c3cnn(C)c3)nc21 [Savolitinib] + CC1(C)CCC(CN2CCN(c3ccc(C(=O)NS(=O)(=O)c4ccc(NCC5CCOCC5)c([N+](=O)[O-])c4)c(Oc4cnc5[nH]ccc5c4)c3)CC2)=C(c2ccc(Cl)cc2)C1 [Venetoclax] (first compound max 1 µM, 7x7, partner max 1 µM)	-0.0723	0.12	0.251	0.204	0.0502	0.131	0.0492	0.101	0.27	0.105	0.149	0.0925	0.092	0.141	0.152	0.2	0.114	0.146	0.164	–
CN(CCO)CC[C@H](CSc1ccccc1)Nc1ccc(S(=O)(=O)NC(=O)c2ccc(N3CCC([C@@H](O)c4ccccc4-c4ccc(Cl)cc4)CC3)cc2)cc1S(=O)(=O)C(F)(F)F [AZD4320] + C=CCn1c(=O)c2cnc(Nc3ccc(N4CCN(C)CC4)cc3)nc2n1-c1cccc(C(C)(C)O)n1 [AZD1775] (first compound max 1 µM, partner max 1 µM)	0.0568	0.904	0.449	1	0.364	0.491	0.667	1	0.944	0.14	0.613	0.899	0.531	0.981	1	–	0.512	1	0.842	0.848
CC(=O)c1c(C)c2cnc(Nc3ccc(N4CCNCC4)cn3)nc2n(C2CCCC2)c1=O [Palbociclib] + CN(CC[C@H](CSC1=CC=CC=C1)NC2=C(C=C(C=C2)S(=O)(=O)NC(=O)C3=CC=C(C=C3)N4CCC(CC4)[C@H](C5=CC=CC=C5C6=CC=C(C=C6)Cl)O)S(=O)(=O)C(F)(F)F)CCO [AZD4320] (first compound max 10 µM, 7x7, partner max 1 µM)	-0.0316	0.64	0.497	0.906	0.162	0.781	0.336	0.95	0.975	–	0.31	0.498	0.202	0.829	–	0.738	0.275	0.943	0.257	–
CN(CCO)CC[C@H](CSc1ccccc1)Nc1ccc(S(=O)(=O)NC(=O)c2ccc(N3CCC([C@@H](O)c4ccccc4-c4ccc(Cl)cc4)CC3)cc2)cc1S(=O)(=O)C(F)(F)F [AZD4320] + CC(=O)O[C@H]1C(=O)[C@@]2(C)[C@H]([C@H](OC(=O)c3ccccc3)[C@]3(O)C[C@H](OC(=O)[C@H](O)[C@@H](NC(=O)c4ccccc4)c4ccccc4)C(C)=C1C3(C)C)[C@]1(OC(C)=O)CO[C@@H]1C[C@@H]2O [Paclitaxel] (first compound max 1 µM, 7x7, partner max 3 µM)	–	–	–	–	–	–	–	–	–	0.566	–	–	–	–	–	–	–	–	–	–
N#Cc1cnc(Nc2cc(NC[C@H]3CNCCO3)c(C(F)(F)F)cn2)cn1 [SRA737] + Nc1ccn([C@@H]2O[C@H](CO)[C@@H](O)C2(F)F)c(=O)n1 [Gemcitabine] (first compound max 10 µM, 7x7, partner max 0.3 µM)	–	–	–	–	–	–	–	–	–	0.592	–	–	–	–	–	–	–	–	–	–
C[C@@H](c1ccc2nccn2c1)n1nnc2ncc(-c3cnn(C)c3)nc21 [Savolitinib] + CN(CC[C@H](CSC1=CC=CC=C1)NC2=C(C=C(C=C2)S(=O)(=O)NC(=O)C3=CC=C(C=C3)N4CCC(CC4)[C@H](C5=CC=CC=C5C6=CC=C(C=C6)Cl)O)S(=O)(=O)C(F)(F)F)CCO [AZD4320] (first compound max 1 µM, 7x7, partner max 1 µM)	-0.0638	0.416	0.189	0.291	0.17	0.187	0.0638	0.138	0.798	–	0.202	0.155	0.22	0.417	–	0.409	0.134	0.871	0.213	–
Cc1nc(Nc2ncc(C(=O)Nc3c(C)cccc3Cl)s2)cc(N2CCN(CCO)CC2)n1 [Dasatinib] + CC(=O)Nc1cccc(-n2c(=O)n(C3CC3)c(=O)c3c(Nc4ccc(I)cc4F)n(C)c(=O)c(C)c32)c1 [Trametinib] (first compound max 2 µM, 7x7, partner max 1 µM)	-0.0746	0.281	0.472	0.527	0.868	0.846	0.306	0.609	0.556	–	0.305	0.751	0.414	0.742	0.169	0.688	0.737	1	0.779	–
CN(CCO)CC[C@H](CSc1ccccc1)Nc1ccc(S(=O)(=O)NC(=O)c2ccc(N3CCC([C@@H](O)c4ccccc4-c4ccc(Cl)cc4)CC3)cc2)cc1S(=O)(=O)C(F)(F)F [AZD4320] + Nc1ccn([C@@H]2O[C@H](CO)[C@@H](O)C2(F)F)c(=O)n1 [Gemcitabine] (first compound max 1 µM, 7x7, partner max 0.3 µM)	–	–	–	–	–	–	–	–	–	0.635	–	–	–	–	0.934	–	–	–	–	–
C[C@@H](c1ccc2nccn2c1)n1nnc2ncc(-c3cnn(C)c3)nc21 [Savolitinib] + Cc1c2c(nn1C)CSCc1cc(n(C)n1)CSc1cc(c3ccccc3c1)OCCCc1c(C(=O)O)n(C)c3c-2c(Cl)ccc13 [AZD5991] (first compound max 1 µM, 7x7, partner max 1 µM)	-0.103	0.167	0.0581	0.175	0.494	0.409	0.0743	0.669	0.726	0.627	0.16	0.187	0.38	0.181	0.22	0.386	0.195	0.173	0.213	–
N#Cc1cnc(Nc2cc(NC[C@H]3CNCCO3)c(C(F)(F)F)cn2)cn1 [SRA737] + CCc1c2c(nc3ccc(O)cc13)-c1cc3c(c(=O)n1C2)COC(=O)[C@]3(O)CC [SN-38] (first compound max 10 µM, 7x7, partner max 0.3 µM)	–	–	–	–	–	–	–	–	–	0.475	–	–	–	–	0.88	–	–	–	–	–
Cc1cc2ncnn2cc1Nc1ncc2c(n1)n(C1CCOCC1)c(=O)n2C [AZD7648] + COc1cc([C@@H]2c3cc4c(cc3[C@@H](O[C@@H]3O[C@@H]5CO[C@@H](C)O[C@H]5[C@H](O)[C@H]3O)[C@H]3COC(=O)[C@H]23)OCO4)cc(OC)c1O [Etoposide] (first compound max 10 µM, 7x7, partner max 10 µM)	–	–	–	–	–	–	–	–	–	0.528	–	–	–	–	0.653	–	–	–	–	–
N#Cc1cnc(Nc2cc(NC[C@H]3CNCCO3)c(C(F)(F)F)cn2)cn1 [SRA737] + C=CCn1c(=O)c2cnc(Nc3ccc(N4CCN(C)CC4)cc3)nc2n1-c1cccc(C(C)(C)O)n1 [AZD1775] (first compound max 10 µM, partner max 1 µM)	–	–	–	–	–	–	–	–	–	0.511	–	–	–	–	0.853	–	–	–	–	–
N#Cc1cnc(Nc2cc(NC[C@H]3CNCCO3)c(C(F)(F)F)cn2)cn1 [SRA737] + O=c1[nH]cc(F)c(=O)[nH]1 [5-Fluorouracil] (first compound max 10 µM, 7x7, partner max 20 µM)	–	–	–	–	–	–	–	–	–	0.323	–	–	–	–	0.732	–	–	–	–	–
COc1cc2ncnc(Nc3ccc(F)c(Cl)c3)c2cc1OCCCN1CCOCC1 [Gefitinib] + CC(C)n1c(=O)n(C)c2cnc3cc(F)c(-c4ccc(OCCCN5CCCCC5)nc4)cc3c21 [AZD1390] (first compound max 10 µM, 7x7, partner max 0.3 µM)	-0.0756	0.176	0.361	0.195	0.689	0.214	0.297	0.353	0.251	0.24	0.134	0.353	0.196	0.528	0.178	0.267	0.203	0.157	0.491	–
COc1nnc2ccc(N3CCC(c4ccc(OCCN5CCN(C)C(=O)[C@H]5C)cc4)CC3)nn12 [AZD5153] + CN(CC[C@H](CSC1=CC=CC=C1)NC2=C(C=C(C=C2)S(=O)(=O)NC(=O)C3=CC=C(C=C3)N4CCC(CC4)[C@H](C5=CC=CC=C5C6=CC=C(C=C6)Cl)O)S(=O)(=O)C(F)(F)F)CCO [AZD4320] (first compound max 1 µM, 7x7, partner max 1 µM)	0.041	0.674	0.754	0.841	0.608	0.846	0.598	0.672	0.856	–	0.354	0.519	0.328	0.866	–	0.79	0.357	1	0.384	–
